For 34 molecules, logD and solubility results are on record in ChEMBL document CHEMBL5126562, “Surprising lipophilicity observations identify unexpected conformational effects” (Bioorg Med Chem Lett, 2022).

Usually logD stands for lipophilicity at a set pH, counting ionised and neutral species. A higher logD goes with a more lipophilic compound. For orientation: solubility means the dissolved amount per volume that the medium holds. Read a low solubility as a poorly soluble substance.

≈ marks a conversion by molar mass, not a printed value.

The nature of series [1]: Lipophilicity, logD of compound at pH 7.4. The series is classed as physicochemical. Conditions: buffer.
A short description of series [2]: Solubility of compound at pH 7.4. The series is classed as physicochemical. The following applies: buffer.

For `O=C1CCCN1c1cnc(NCc2c(F)ccc3c2CCO3)c2cn[nH]c(=O)c12`, the logD in series [1] came to 1.8.

`O=C1CCCN1c1cnc(NCc2c(F)ccc3c2CCO3)n2cnnc12` yielded a logD in series [1] of 1.3. `Cc1nc(Nc2cccc(N3CCCCC3=O)n2)sc1-c1cc2c(c(S(C)(=O)=O)c1)C(=O)N([C@@H](C)C1CC1)C2` came in with a solubility in series [2] of 6.3 µM (≈ 3.56 µg/mL). Besides, the logD in series [1] was 3.9. For `Cc1nc(Nc2cccc(N3CCN(C)C3=O)n2)sc1-c1cc2c(c(S(C)(=O)=O)c1)C(=O)N([C@@H](C)C1CC1)C2`, in that order: below 0.045 µM and 3.4. In the case of `CN1CCN(c2cnc(NCc3c(F)ccc4c3CCO4)n3cnnc23)C1=O`, the concentration in solution in series [2] (solubility) came to 641 µM (≈ 246 µg/mL). The logD in series [1] is 1.4. `CC(=O)N1CCc2cc(-c3cccc4c3CCCC4)cc(N3CCCCC3=O)c21` showed a solubility in series [2] of 259 µM (≈ 101 µg/mL). The same molecule had a logD in series [1] of 3.8. For `N#Cc1cccc2ncn(CC(=O)NCc3ccc(C(F)(F)F)nc3N3CCCC3=O)c12`, in that order: above 2400 µM and 1.8. For `C[C@]1(CS(=O)(=O)N2CC=C(C#Cc3cccc(N4CCCC4=O)c3)CC2)NC(=O)NC1=O`, in that order: 94 µM (≈ 42.9 µg/mL) and 1.5.

The molecule `O=C1CCCCN1c1cnc(NCc2c(F)ccc3c2CCO3)n2cnnc12` showed a solubility in series [2] of 351 µM (≈ 134 µg/mL). The same molecule came in with a logD in series [1] of 1.3.

In series [2], `O=C(C1CC1c1ccc(N2CCCC2=O)cc1)N1CCN(C2CCC2)CC1` (stereo unspecified) returned a solubility above 2680 µM. This molecule also displayed a logD in series [1] of 2. In the case of `O=C1CCCCN1c1cnc(NCc2c(F)ccc3c2CCO3)c2cn[nH]c(=O)c12`, the solubility in series [2] stood at 18 µM (≈ 7.37 µg/mL). For the same molecule, the logD in series [1] was determined as 1.9. For `COc1ccc(N2CCN(C)CC2)c(CN2CCCN(c3ccc(N4CCOCC4)cc3)C2=O)c1`, in that order: 404 µM (≈ 194 µg/mL) and 1.3.

With `COCC(=O)N1CCC(COc2ccc(N3CCCC3=O)cc2)C1` (stereo unspecified), in series [2], the concentration in solution (solubility) came to 271 µM (≈ 90.1 µg/mL). This molecule also showed a logD in series [1] of 0.2. For the molecule `Cc1nc(Nc2cccc(N3CCCCC3=O)n2)sc1-c1cc2c(c(S(=O)(=O)NC3COC3)c1)C(=O)N([C@@H](C)C1CC1)C2`, in series [2], the concentration in solution (solubility) came to 1.8 µM (≈ 1.12 µg/mL). Moreover, the logD in series [1] was 3.6. As for `CN1CCCN(c2cnc(NCc3c(F)ccc4c3CCO4)n3cnnc23)C1=O`, the concentration in solution in series [2] (solubility) was 153 µM (≈ 60.8 µg/mL). In series [1], the logD is 1.2.

The molecule `O=C([C@@H]1C[C@H]1c1cccc(N2CCCC2=O)c1)N1CCN(C2CCC2)CC1` showed a solubility in series [2] above 4140 µM. This molecule gave a logD in series [1] of 2. With `O=C([C@@H]1C[C@H]1c1cccc(N2CCCCC2=O)c1)N1CCN(C2CCC2)CC1`, the solubility in series [2] is above 3000 µM. Further, the logD in series [1] was 1.6. For `O=C1CCCCN1c1cccc(C(=O)N(c2ncccc2Cl)[C@@H]2CCCNC2)c1`, in that order: above 973 µM and -0.9. For `Cc1nc(Nc2cccc(N3CCCC3=O)n2)sc1-c1cc2c(c(S(=O)(=O)NC3COC3)c1)C(=O)N([C@@H](C)C(F)(F)F)C2`, in that order: 0.081 µM (≈ 0.0516 µg/mL) and above 4. For `COCC(=O)N1CCC(COc2ccc(N3CCCCC3=O)cc2)C1` (stereo unspecified), in that order: above 3970 µM and -0.1. In the case of `Cc1nc(Nc2cccc(N3CCOC3=O)n2)sc1-c1cc2c(c(S(=O)(=O)NC3COC3)c1)C(=O)N([C@@H](C)C1CC1)C2`, the solubility in series [2] came out at 0.021 µM (≈ 0.0128 µg/mL). In series [1], this molecule showed a logD above 4. For `O=C([C@H]1C[C@@H]1c1cccc(N2CCCCC2=O)c1)N1CCN(C2CCC2)CC1`, in that order: 2190 µM (≈ 837 µg/mL) and 1.7. For `O=C1CCCN1c1cccc(C(=O)N(c2ncccc2Cl)[C@@H]2CCCNC2)c1`, the concentration in solution in series [2] (solubility) was 67 µM (≈ 26.7 µg/mL). The same molecule had a logD in series [1] of -0.5. For `COc1ccc(N2CCN(C)CC2)c(CN2CCN(c3ccc(N4CCOCC4)cc3)C2=O)c1`, in that order: 456 µM (≈ 212 µg/mL) and 1.8. For `CS(=O)(=O)c1ccc(CNC(=O)C2CCCN(c3cccc(C(F)(F)F)c3)C2=O)cc1` (stereo unspecified), in that order: 94 µM (≈ 42.7 µg/mL) and 1.5.

Take `CC(=O)N1CCc2cc(-c3cccc4c3CCCC4)cc(N3CCCC3=O)c21`: in series [2], the solubility came out at 271 µM (≈ 101 µg/mL). Also, the logD in series [1] was found to be 3.5.

Consider `Cc1nc(Nc2cccc(N3CCCCC3=O)n2)sc1-c1cc2c(c(S(=O)(=O)NC3COC3)c1)C(=O)N([C@@H](C)C(F)(F)F)C2`, for which the solubility in series [2] worked out at 3 µM (≈ 1.95 µg/mL). Further, in series [1], the logD is 3.8. For `CN1CCN(c2ccc(F)cc2CN2CCN(c3ccc(N4CCOCC4)cc3)C2=O)CC1`, in that order: 189 µM (≈ 85.7 µg/mL) and 2.1. For `CN1CCN(c2ccc(F)cc2CN2CCCN(c3ccc(N4CCOCC4)cc3)C2=O)CC1`, in that order: 387 µM (≈ 181 µg/mL) and 1.6. For `Cc1nc(Nc2cccc(N3CCCN(C)C3=O)n2)sc1-c1cc2c(c(S(C)(=O)=O)c1)C(=O)N([C@@H](C)C1CC1)C2`, in that order: below 0.14 µM and 3.5. Molecule `N#Cc1cccc2ncn(CC(=O)NCc3ccc(C(F)(F)F)nc3N3CCCCC3=O)c12` registered a solubility in series [2] above 200 µM. In series [1], this molecule gave a logD of 1.8. For `C[C@]1(CS(=O)(=O)N2CC=C(C#Cc3cccc(N4CCCCC4=O)c3)CC2)NC(=O)NC1=O`, in that order: 89 µM (≈ 41.9 µg/mL) and 1. For `CS(=O)(=O)c1ccc(CNC(=O)C2CCN(c3cccc(C(F)(F)F)c3)C2=O)cc1` (stereo unspecified), in that order: 15 µM (≈ 6.61 µg/mL) and 2.1. For `Cc1nc(Nc2cccc(N3CCCC3=O)n2)sc1-c1cc2c(c(S(C)(=O)=O)c1)C(=O)N([C@@H](C)C1CC1)C2` [AZD-8154], in that order: 0.054 µM (≈ 0.0298 µg/mL) and 4.4.
